Reference: US20240108008A1, “COMPOSITIONS COMPRISING MESOSULFURON-METHYL AND TEHP” (BAYER AKTIENGESELLSCHAFT, priority 2020, published 2024)

Assays:
[1] = system: TRZAW, winter wheat; test: Greenhouse selectivity trials, wheat crop injury post-emergence; assay type: in vivo, winter wheat (variety: Dekan); details: 2 kg of TEHP per hectare, in combination with mesosulfuron-methyl and/or a salt thereof
Source text: The 00 damage (injury) indicated refers to the maximum damage observed in the respective crop.

[2] = system: harmful plants; test: Adjuvant effect on performance of mesosulfuron-methyl; assay type: in vivo; details: same application rate as tri(butoxyethyl) phosphate (TBEP)

CCCCC(CC)COP(=O)(OCC(CC)CCCC)OCC(CC)CCCC (centres unmarked) [TEHP, Tris(2-ethylhexyl) phosphate]
phytotoxic effects in crop plants such as wheat [1]: significant phytotoxic effects
effects as adjuvant in comparison to TBEP [2]: superior
